# Data reported in PMC8550792, “Evolution of kinase polypharmacology across HSP90 drug discovery” (Cell Chemical Biology, 2021).
# Where two headings read alike, the source gives them in different places.
# Target: DDR1 (Homo sapiens, UniProt Q08345)
# Assay: HotSpot in vitro kinase radiometric assay
# Type: biochemical
# Parameters: purchased Reaction Biology (HotSpot contract assay)
# DDR1, sequence (Q08345 19-913): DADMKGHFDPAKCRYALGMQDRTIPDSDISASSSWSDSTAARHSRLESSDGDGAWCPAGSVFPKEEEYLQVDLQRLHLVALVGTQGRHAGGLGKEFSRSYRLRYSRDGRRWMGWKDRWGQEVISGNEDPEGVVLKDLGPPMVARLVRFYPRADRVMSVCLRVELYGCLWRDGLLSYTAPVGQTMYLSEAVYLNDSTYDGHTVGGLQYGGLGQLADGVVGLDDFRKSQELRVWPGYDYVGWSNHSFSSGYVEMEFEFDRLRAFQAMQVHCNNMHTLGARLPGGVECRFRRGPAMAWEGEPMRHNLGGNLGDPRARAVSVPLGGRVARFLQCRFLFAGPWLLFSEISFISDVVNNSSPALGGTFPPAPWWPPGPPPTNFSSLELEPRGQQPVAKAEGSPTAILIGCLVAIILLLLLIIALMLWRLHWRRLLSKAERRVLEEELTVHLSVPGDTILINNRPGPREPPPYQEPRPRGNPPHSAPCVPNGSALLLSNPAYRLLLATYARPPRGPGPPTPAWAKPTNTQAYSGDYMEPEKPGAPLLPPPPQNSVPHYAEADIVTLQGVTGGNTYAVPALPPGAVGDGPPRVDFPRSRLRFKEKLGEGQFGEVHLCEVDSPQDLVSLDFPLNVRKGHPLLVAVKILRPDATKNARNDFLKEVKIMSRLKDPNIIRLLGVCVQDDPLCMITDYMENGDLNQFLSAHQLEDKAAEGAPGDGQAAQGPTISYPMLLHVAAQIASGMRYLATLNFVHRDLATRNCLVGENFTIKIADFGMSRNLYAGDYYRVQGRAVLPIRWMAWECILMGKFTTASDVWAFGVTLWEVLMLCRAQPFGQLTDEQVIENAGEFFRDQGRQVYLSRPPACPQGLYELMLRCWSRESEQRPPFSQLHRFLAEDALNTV
structure (smiles),measurement,setting,value
CN[C@@H]1C[C@H]2O[C@@](C)([C@@H]1OC)n1c3ccccc3c3c4c(c5c6ccccc6n2c5c31)C(=O)NC4 [Staurosporine],DDR1 - % activty,,87.08%
same,HILLSLOPE,"DDR1, single replicate curves",-1.76
same,DDR1 - % activty,Stauro Conc. 1.25E-06 M,0.78%
same,DDR1 - % activty,Stauro Conc. 1.95E-08 M,5.70%
same,DDR1 - % activty,Stauro Conc. 2.00E-05 M,-0.41%
same,DDR1 - % activty,Stauro Conc. 3.05E-10 M,101.08%
same,DDR1 - % activty,Stauro Conc. 4.88E-09 M,36.56%
same,DDR1 - % activty,Stauro Conc. 7.63E-11 M,100.44%
same,DDR1 - % activty,Stauro Conc. 7.81E-08 M,1.19%
